In PMC11496081, “The diversity of AMPA receptor inhibition mechanisms among amidine-containing compounds” (Frontiers in Pharmacology, 2024):
Values joined by “and” are separate entries in the source; they are usually repeats but may differ in a detail not shown here. Identical values can stand only once. Like-named read-outs stand apart in the source and are kept apart here.

Assays:
[1] = biological target: NMDA receptors; parameters: method as in Zhigulin and Barygin, 2023; conditions: ref Zhigulin and Barygin, 2023, cited from earlier work; for IC50: read-out: IC50 at -80mV, μM NMDAR; for δb NMDAR / Kb: channel site; for Kb: read-out: Kb, μM NMDAR; for Kd: superficial site, read-out: Kvin, μM NMDAR
[2] = test system: calcium-permeable AMPA receptors (CP-AMPARs); assay: Whole-cell patch clamp, block of kainate-induced currents in striatal giant interneurons; assay type: cell-based, rat
Procedure: (§1) The rats were anesthetised with sevoflurane and then decapitated. […] All experiments were performed at room temperature.
(§2) Pentamidine isethionate (P-155) was from Alomone laboratories.
(§3) The voltage dependence of compounds action was analysed by Woodhull model for permeable blockers ([Woodhull, 1973]; [Tikhonova et al., 2008]). According to this model, the voltage dependence of steady-state blockade is given by Equation 1: BV=100%−100%/1+C/KbexpF/RT zδb V+Kp exp−F/RT zδp V (1) where V is voltage, B is level of block (%), C is concentration of the drug, z is molecular charge, and R, F and T have their standard meanings. Kb is the affinity of a drug for the channel. The δb value reflects the fraction of membrane electric field that the charged blocking molecule crosses on its pathway between the external media and the binding site in the channel (where the total field has a value of 1). Parameters Kp and δp describe permeation through the channel. […] For this reason, we used Equation 2, which takes into account the possibility of inhibitor to bind also at superficial site ([Nikolaev and Tikhonov, 2023]), assuming that the binding to the deep and superficial site is independent. BV=100%−100%/1+C/KbexpF/RT zδb V+Kp exp−F/RT zδp V+C/Kvin+C^2/Kvin KbexpF/RT zδb V+Kp exp−F/RT zδp V (2)
(§4) All experimental data are presented as the mean ± SD estimated from at least four experiments (cells). Significance of the effects was tested with t-tests. Differences were considered significant at p < 0.05. Concentration dependencies were approximated by Hill equation. Voltage dependencies were approximated by Equation 1 or 2. […] Then all data was pooled together and the parameters of voltage dependence were estimated using the fitting of all measurements. For each holding potential ≥4 cells were used. Voltage dependence parameters (binding constants and δb values) are shown as the result of the fitting ± approximation errors.

[3] = test system: calcium-permeable AMPA receptors (CP-AMPARs); parameters: method as in Zhigulin et al., 2022; conditions: −80 mV, ref Zhigulin et al., 2022, cited from earlier work
[4] = biological target: T1, calcium-impermeable AMPA receptors (CI-AMPARs) (Rattus norvegicus, UniProt P19490+P19491, Q607R); parameters: method as in Zhigulin et al., 2022; conditions: 100 µM compound, −80 mV; ref Zhigulin et al., 2022; cited from earlier work
T1 sequence (P19491 22-883 Q607R): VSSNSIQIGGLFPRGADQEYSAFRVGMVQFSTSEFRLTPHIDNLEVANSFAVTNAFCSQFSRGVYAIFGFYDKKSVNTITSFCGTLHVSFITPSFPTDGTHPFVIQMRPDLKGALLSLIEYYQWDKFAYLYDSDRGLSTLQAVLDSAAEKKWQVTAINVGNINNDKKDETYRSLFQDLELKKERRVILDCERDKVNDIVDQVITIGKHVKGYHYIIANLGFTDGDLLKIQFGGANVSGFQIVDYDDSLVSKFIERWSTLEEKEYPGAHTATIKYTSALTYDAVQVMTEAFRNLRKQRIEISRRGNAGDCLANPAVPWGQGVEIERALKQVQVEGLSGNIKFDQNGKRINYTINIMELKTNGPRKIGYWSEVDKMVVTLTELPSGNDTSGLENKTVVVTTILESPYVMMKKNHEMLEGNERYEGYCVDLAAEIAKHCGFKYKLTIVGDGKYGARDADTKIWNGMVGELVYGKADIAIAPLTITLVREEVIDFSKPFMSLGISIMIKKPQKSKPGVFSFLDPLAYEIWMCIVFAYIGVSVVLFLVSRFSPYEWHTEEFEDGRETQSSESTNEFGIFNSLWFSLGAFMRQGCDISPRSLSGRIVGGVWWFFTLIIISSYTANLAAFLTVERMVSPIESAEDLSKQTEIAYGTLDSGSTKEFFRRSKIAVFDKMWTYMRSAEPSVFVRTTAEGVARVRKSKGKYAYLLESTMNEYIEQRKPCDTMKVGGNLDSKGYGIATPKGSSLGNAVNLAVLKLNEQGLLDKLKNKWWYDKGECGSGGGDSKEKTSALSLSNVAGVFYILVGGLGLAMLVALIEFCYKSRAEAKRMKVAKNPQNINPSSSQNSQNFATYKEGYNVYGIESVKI
T1 sequence (P19490 19-907): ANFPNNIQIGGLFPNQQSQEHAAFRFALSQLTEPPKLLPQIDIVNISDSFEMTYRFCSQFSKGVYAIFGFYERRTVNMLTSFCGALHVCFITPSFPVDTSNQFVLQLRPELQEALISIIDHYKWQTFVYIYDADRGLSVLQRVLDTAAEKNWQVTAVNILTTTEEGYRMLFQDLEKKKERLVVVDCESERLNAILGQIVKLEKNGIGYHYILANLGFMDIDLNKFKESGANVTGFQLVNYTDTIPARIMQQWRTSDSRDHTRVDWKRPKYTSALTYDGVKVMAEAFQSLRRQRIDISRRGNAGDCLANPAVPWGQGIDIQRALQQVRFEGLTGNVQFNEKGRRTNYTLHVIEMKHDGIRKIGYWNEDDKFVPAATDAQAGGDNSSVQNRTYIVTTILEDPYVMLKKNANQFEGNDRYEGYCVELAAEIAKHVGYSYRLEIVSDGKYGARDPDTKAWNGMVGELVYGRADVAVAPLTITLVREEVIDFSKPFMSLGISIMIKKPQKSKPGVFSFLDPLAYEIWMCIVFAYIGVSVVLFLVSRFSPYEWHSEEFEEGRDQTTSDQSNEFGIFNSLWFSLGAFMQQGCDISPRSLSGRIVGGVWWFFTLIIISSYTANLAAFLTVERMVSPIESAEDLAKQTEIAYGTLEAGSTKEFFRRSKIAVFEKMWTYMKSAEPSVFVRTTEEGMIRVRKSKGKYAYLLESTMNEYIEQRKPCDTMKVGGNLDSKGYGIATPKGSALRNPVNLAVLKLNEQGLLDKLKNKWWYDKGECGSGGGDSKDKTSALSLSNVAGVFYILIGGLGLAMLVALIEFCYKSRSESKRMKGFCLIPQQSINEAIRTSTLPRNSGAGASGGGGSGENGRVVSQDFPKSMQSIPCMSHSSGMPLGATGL

[5] = biological target: T1, calcium-impermeable AMPA receptors (CI-AMPARs); assay: Whole-cell patch clamp, kainate-induced currents in hippocampal CA1 pyramidal neurons; assay type: cell-based; conditions: for δb CI-AMPAR: fixed δb values obtained from the CP-AMPARs data; for inhibition at 200 µM: furamidine 50 µM
Procedure: as §1, §2, §3, §4

[6] = biological target: T1, calcium-impermeable AMPA receptors (CI-AMPARs); assay: Whole-cell patch clamp, glutamate-induced currents in hippocampal CA1 pyramidal neurons
Procedure: The rats were anesthetised with sevoflurane and then decapitated. The brains were brought out quickly and cooled to 2°C–4°C. Transverse striatal or hippocampal slices were cut using a vibratome (Campden Instruments) and stored in a solution containing (in mM): NaCl 124, KCl 5, CaCl2 1.3, MgCl2 2.0, NaHCO3 26, NaH2PO4 1.24, D-glucose 10, aerated with carbogen (95% O2, 5% CO2). All experiments were performed at room temperature.
Vibrodissociation method ([Vorobjev, 1991]; [Jun et al., 2011]) was used to free CA1 pyramidal neurons or giant striatal interneurons from slices. This method allows isolating cells without enzymatic treatment and keep them in more native state. […] The antagonism of CI-AMPARs was studied on pyramidal neurons from the CA1 area of the hippocampus. These cells were isolated from the stratum pyramidale and distinguished from non-pyramidal cells on the basis of pyramidal-like somata and preserved apical dendrites.
To record membrane currents in response to applications of kainate or glutamate the whole-cell configuration of patch clamp technique was used. Series resistance (<20 MΩ) was compensated by 70%–80% and monitored during experiments. […]
AMPA receptors were activated with 100 µM kainate or 1 mM glutamate unless otherwise stated. […] The effects of compounds on steady-state currents for different drug concentrations were measured at −80 mV holding voltages. […]

[7] = 100 µM compound, kainate-induced current, −80 mV
[8] = kainate-induced current, −80 mV; read-out: IC50, µM CP-AMPARs
[9] = −80 mV; IEM-1925 1 µM, pentamidine 50 μM
[10] = voltage dependence fitted by eq. 1; read-out: Kb, µM CP-AMPARs (binding to channel site)
[11] = voltage dependence −140 to +40 mV fitted by eq. 1

Row | Compound | IC50 ([1]; −80 mV) | Block at 100 µM, % CP-AMPARs [2, 7] | IC50 [2, 8] | δb NMDAR [1] | Kb [1] | Kd [1] | Kb [2, 10] | δb CP-AMPARs (fraction of membrane electric field to channel site) [2, 11] | δb CI-AMPAR [5] | other results
1 | CN(C)C(=O)COC(=O)Cc1ccc(OC(=O)c2ccc(NC(=N)N)cc2)cc1 [Camostat] | > 100 µM | 16 ± 4 (n=4) % | > 100 µM | – | – | – | – | – | – | IC50 at -80mV, μM NMDAR ([1]; −80 mV): ineffective; Block at 100 µM, % CP-AMPARs ([2]; 100 µM compound, kainate-induced current, −80 mV; listed as camostat): < 50%
2 | IEM-1925 | – | – | – | – | – | – | – | – | – | inhibition of CP-AMPARs with 50 µM kainate [2, 9]: 40% ± 3%; inhibition of CP-AMPARs with 500 µM kainate [2, 9]: 48% ± 5%
3 | N=C(N)c1ccc(/N=N/Nc2ccc(C(=N)N)cc2)cc1 [Diminazene] | 13 µM | – | – | 0.55 | 1500 µM | 14 µM | 47 ± 5 µM | 0.64 ± 0.05 and 0.65 | 0.65 | Block at 100 µM, % CP-AMPARs ([3]; 100 µM compound): 69 ± 4 %; IC50 [3]: 60 ± 11 µM; δb CP-AMPARs (fraction of membrane electric field to channel site) ([2]; voltage dependence −140 to +40 mV fitted by eq. 1; listed as diminazene): around 0.7; Block at 100 µM, % CI-AMPARs [4]: 31 ± 7 %
4 | NS(=O)(=O)c1cc2c(cc1Cl)NC(C1CC3C=CC1C3)NS2(=O)=O (stereo not drawn) [cyclothiazide] | – | – | – | – | – | – | – | – | – | fold induction at 100 µM ([6]; read-out: enhancement of glutamate-induced currents): 12 ± 3; fold induction at 100 µM ([5]; read-out: increase in current at 50 µM kainate): 8 ± 2; fold induction at 100 µM ([5]; read-out: potentiation of responses evoked by 100 µM kainate): 6 ± 3
5 | N=C(N)c1ccc(-c2cc3ccc(C(=N)N)cc3[nH]2)cc1 [DAPI, 4′,6-diamidino-2-phenylindole] | 3.1 µM | 83 ± 4 (n=4) % | 27 ± 1 µM | 0.55 | 5000 µM | 3.2 µM | 5.4 ± 1.2 µM | – | 0.65 | Block at 100 µM, % CI-AMPARs [5, 7]: 64 ± 5 (n=6) %; Kb ([5]; fitted by eq. 2 with fixed δb values from CP-AMPARs data, read-out: Kb, µM CI-AMPARs (binding to channel site)): 24 ± 7 µM; Kd ([5]; fitted by eq. 2 with fixed δb values from CP-AMPARs data, read-out: Kvin, µM CI-AMPARs (binding to superficial site)): 62 ± 6 µM; IC50 ([5]; kainate-induced current, −80 mV): 59 ± 9 µM
6 | N#Cc1ccccc1-c1cc(-c2ccccn2)cn(-c2ccccc2)c1=O [perampanel] | – | – | – | – | – | – | – | – | – | inhibition of CP-AMPARs in presence of kainate ([2]; 100 nM perampanel): 50%–70%; inhibition at 0.1 µM ([5]; read-out: inhibition of kainate-induced CI-AMPAR currents in absence of cyclothiazide, 100 nM perampanel): 74%
7 | N=C(N)c1ccc(OCCCCCOc2ccc(C(=N)N)cc2)cc1 [Pentamidine] | 0.41 µM | 70 ± 4 (n=4) % | 43 ± 9 µM | 0.7 | 27 µM | 10 µM | 36 ± 4 µM | 0.49 ± 0.04 and 0.5 | 0.5 | washout kinetics τ of perampanel and pentamidine mixture ([2]; 100 nM perampanel + 500 µM pentamidine, in presence of kainate): 620 ± 470 ms; block of CP-AMPARs at +40 mV ([2]; 100 μM, +40 mV, representative example): 27%; block of CP-AMPARs at −40 mV ([2]; 100 μM, −40 mV, representative example): 78%; rectification index (current ratio between +40 mV and −40 mV) ([2]; 10 mM in pipette solution, kainate-induced responses): 0.10 ± 0.04; washout kinetics τ, CP-AMPARs ([2]; in presence of kainate): 120 ± 60 ms; remaining activity at 100 µM ([6]; read-out: Idrug/Icontrol, glutamate-induced steady-state current): 140 ± 10%; inhibition at 100 µM ([5]; read-out: Block at 100 µM, % CI-AMPARs, 100 µM compound, kainate-induced current, −80 mV): 39 ± 5%; inhibition at 200 µM ([5]; read-out: block of CI-AMPARs with 50 µM kainate, −80 mV, pentamidine 200 µM, no cyclothiazide): 38%; inhibition at 200 µM ([5]; read-out: block of CI-AMPARs with 500 µM kainate, −80 mV, pentamidine 200 μM): 61%
8 | N=C(N)c1ccc2cc(OC(=O)c3ccc(NC4=NCCN4)cc3)ccc2c1 [Sepimostat] | 3.5 µM | 66 ± 5 (n=4) % | 56 ± 6 µM | 0.55 | 102 µM | 7 µM | 71 ± 9 µM | 0.88 ± 0.12 and 0.9 | 0.9 | inhibition remaining in trapping protocol after 10 s without kainate ([2]; 300 µM sepimostat): 21% ± 2%; recovery (washout) kinetics τ, CP-AMPARs ([2]; in presence of kainate): 1.5 ± 0.3 s; IC50 ([2]; kainate-induced current, −80 mV; listed as sepimostat; read-out: IC50, µM CP-AMPARs): ~55 µM; δb CP-AMPARs (fraction of membrane electric field to channel site) ([2]; voltage dependence −140 to +40 mV fitted by eq. 1; listed as sepimostat): ~0.9; inhibition at 100 µM ([5]; 100 µM compound, kainate-induced current, −80 mV, read-out: Block at 100 µM, % CI-AMPARs): 37 ± 3%
9 | N=C(N)c1ccc(-c2ccc(-c3ccc(C(=N)N)cc3)o2)cc1 [Furamidine] | 0.64 µM | 79 ± 7 (n=4) % | – | 0.55 | 22 µM | 3.3 µM | – | 0.72 ± 0.15 and 0.7 | 0.7 | Block at 100 µM, % CP-AMPARs ([2]; 100 µM compound, kainate-induced current, −80 mV; listed as furamidine): 75–80%; IC50 ([2]; read-out: IC50, µM CP-AMPARs; kainate-induced current, −80 mV): 38 µM; Kb ([2]; read-out: Kb, µM CP-AMPARs (binding to channel site); voltage dependence fitted by eq. 1): 15 µM; δb CP-AMPARs (fraction of membrane electric field to channel site) ([2]; voltage dependence −140 to +40 mV fitted by eq. 1; listed as furamidine): around 0.7
10 | CCOC(=O)c1ccc(OC(=O)CCCCCNC(=N)N)cc1 [Gabexate] | 16 µM | 30 ± 4 (n=4) % | > 100 µM | 0.55 | 800 µM | 25 µM | – | – | – | –
11 | N=C(N)c1ccc2cc(OC(=O)c3ccc(N=C(N)N)cc3)ccc2c1 [Nafamostat] | 0.2 µM | 60 ± 11 (n=4) % | 55 ± 24 µM | 0.55 | 11 µM | 3 µM | 9 ± 4 µM | 0.76 ± 0.16 and 0.75 | 0.75 | IC50 ([2]; kainate-induced current, −80 mV; listed as nafamostat; read-out: IC50, µM CP-AMPARs): ~55 µM; Kb ([2]; voltage dependence fitted by eq. 1; listed as nafamostat; read-out: Kb, µM CP-AMPARs (binding to channel site)): 5 to 10 µM; δb CP-AMPARs (fraction of membrane electric field to channel site) ([2]; voltage dependence −140 to +40 mV fitted by eq. 1; listed as nafamostat): around 0.7
